From ChEMBL document CHEMBL1155519, “Discovery of N-phenyl-4-(thiazol-5-yl)pyrimidin-2-amine aurora kinase inhibitors” (J Med Chem, 2010)
Values after ≈ are worked out from the molar mass of the structure shown. Active and inactive are the calls of the source. The calls are words filed in the database; no cut-off is given here.

Experiments:
[1] = Inhibition of Aurora kinase in human A549 cells assessed as concentration required for half-maximal inhibition of histone H3 serine-10 phosphorylation after 7 hrs immunofluorescence microscopy; assay type: cell-based; conditions: A549, 7 h
[2] = molecular target: Cytochrome P450 2C19 (Homo sapiens, UniProt P33261); assay: Inhibition of human recombinant CYP2C19 at 5 uM; assay type: ADME; conditions: recombinant enzyme
Chain of Cytochrome P450 2C19 (P33261 whole entry): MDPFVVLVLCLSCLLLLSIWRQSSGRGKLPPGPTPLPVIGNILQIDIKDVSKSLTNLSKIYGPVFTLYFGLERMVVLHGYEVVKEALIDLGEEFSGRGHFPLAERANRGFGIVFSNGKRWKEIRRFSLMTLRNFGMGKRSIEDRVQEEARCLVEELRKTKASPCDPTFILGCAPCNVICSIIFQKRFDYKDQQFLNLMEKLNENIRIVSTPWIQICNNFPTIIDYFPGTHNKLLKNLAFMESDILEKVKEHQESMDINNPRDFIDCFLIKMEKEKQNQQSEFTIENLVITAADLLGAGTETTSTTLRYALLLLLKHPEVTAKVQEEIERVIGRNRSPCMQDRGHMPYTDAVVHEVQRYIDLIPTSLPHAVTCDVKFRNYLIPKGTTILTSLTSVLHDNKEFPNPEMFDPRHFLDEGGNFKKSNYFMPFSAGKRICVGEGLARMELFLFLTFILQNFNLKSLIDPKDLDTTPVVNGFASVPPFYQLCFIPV

[3] = tested on: A549; assay: Effect on mitotic index in asynchronous human A549 cells assessed as appearance of misaligned chromosomes with shortened spindle fibres at 0.5 uM after 8 hrs […]; assay type: functional, cell-based
[4] = Cmax in Wistar rat at 10 mg/kg, po after 24 hrs by LC/MS/MS analysis; assay type: ADME, organism-based; set-up: dose 10 mg/kg, route oral; conditions: in vivo
[5] = Inhibition of PKA
[6] = tested on: HCT-116; assay: Cytotoxicity against human HCT116 cells after 96 hrs by MTT assay; assay type: functional, cell-based; conditions: HCT-116, 96 h
[7] = tested on: CYP1A2; assay: In vitro elimination half life at 5 uM in presence of human recombinant CYP1A2; assay type: ADME; conditions: read-out: beta t1/2
[8] = tested on: CCRF-CEM; assay: Cytotoxicity against human CCRF-CEM cells after 96 hrs by MTT assay; assay type: functional, cell-based
[9] = molecular target: Cytochrome P450 3A4 (Homo sapiens, UniProt P08684); assay: Inhibition of human recombinant CYP3A4 at 5 uM; assay type: ADME; conditions: recombinant enzyme
Chain of Cytochrome P450 3A4 (P08684 whole entry): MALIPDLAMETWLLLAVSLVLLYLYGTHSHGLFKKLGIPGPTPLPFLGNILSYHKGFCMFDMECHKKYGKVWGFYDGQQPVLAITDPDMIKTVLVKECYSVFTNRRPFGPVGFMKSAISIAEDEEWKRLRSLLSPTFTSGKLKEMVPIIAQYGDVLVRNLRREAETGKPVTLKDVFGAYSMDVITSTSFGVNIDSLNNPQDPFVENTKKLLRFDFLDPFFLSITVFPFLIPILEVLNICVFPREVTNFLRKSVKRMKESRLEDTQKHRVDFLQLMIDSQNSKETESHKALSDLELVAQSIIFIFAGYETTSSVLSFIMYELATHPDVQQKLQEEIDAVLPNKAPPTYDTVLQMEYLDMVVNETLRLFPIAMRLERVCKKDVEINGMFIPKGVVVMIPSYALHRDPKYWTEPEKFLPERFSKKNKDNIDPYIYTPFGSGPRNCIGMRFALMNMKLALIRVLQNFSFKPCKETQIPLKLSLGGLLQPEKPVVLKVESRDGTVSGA

[10] = molecular target: Aurora kinase B (Homo sapiens, UniProt Q96GD4); conditions: A549, 0.15 to 5 uM
Chain of Aurora kinase B (Q96GD4 whole entry): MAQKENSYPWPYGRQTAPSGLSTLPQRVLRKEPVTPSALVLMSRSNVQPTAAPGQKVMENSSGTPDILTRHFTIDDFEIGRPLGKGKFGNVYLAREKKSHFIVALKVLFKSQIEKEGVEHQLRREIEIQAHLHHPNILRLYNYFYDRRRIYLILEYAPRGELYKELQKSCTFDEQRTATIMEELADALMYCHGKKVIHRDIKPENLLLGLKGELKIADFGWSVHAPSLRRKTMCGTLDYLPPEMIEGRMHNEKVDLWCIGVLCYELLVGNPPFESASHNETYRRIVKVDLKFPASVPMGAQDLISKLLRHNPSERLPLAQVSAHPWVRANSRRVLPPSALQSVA
Description: Inhibition of Aurora B phosphorylation in human A549 cells at 0.15 to 5 uM after 1 hr by Western blot analysis in presence of nocodazole and proteasome inhibitor MG132

[11] = molecular target: Cytochrome P450 1A (Homo sapiens, UniProt P04798+P05177); assay: Inhibition of human recombinant CYP1A at 5 uM; assay type: ADME; conditions: recombinant enzyme
[12] = molecular target: Mitogen-activated protein kinase 14 (Homo sapiens, UniProt Q16539); assay: Inhibition of SAPK2A
Chain of Mitogen-activated protein kinase 14 (Q16539 whole entry): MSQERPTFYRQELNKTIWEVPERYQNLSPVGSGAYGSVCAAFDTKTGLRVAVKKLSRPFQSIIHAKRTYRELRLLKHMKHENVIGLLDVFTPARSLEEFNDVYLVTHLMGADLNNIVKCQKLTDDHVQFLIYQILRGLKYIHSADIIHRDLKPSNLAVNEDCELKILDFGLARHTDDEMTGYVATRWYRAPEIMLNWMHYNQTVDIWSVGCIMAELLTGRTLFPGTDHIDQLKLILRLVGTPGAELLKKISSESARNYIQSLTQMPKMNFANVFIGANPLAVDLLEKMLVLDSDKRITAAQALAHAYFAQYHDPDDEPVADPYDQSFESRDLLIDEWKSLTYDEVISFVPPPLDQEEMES

[13] = tested on: SW-620; assay: Induction of apoptosis in human SW620 cells assessed as late apoptotic cells at 1 uM after 24 hrs by TUNEL assay; assay type: functional
[14] = tested on: K562; assay: Cytotoxicity against human K562 cells after 96 hrs by MTT assay; assay type: functional, cell-based; conditions: K562, 96 h
[15] = Cytotoxicity against human MESSA cells after 96 hrs by MTT assay; assay type: functional, cell-based; conditions: MES-SA
[16] = tested on: HeLa; assay: Inhibition of Aurora kinase in human HeLa cells assessed as reduction of histone H3 serine-10 phosphorylation at 1 uM after 7 hrs immunofluorescence microscopy; assay type: cell-based
[17] = Aqueous solubility by turbidimetric analysis; assay type: physicochemical
[18] = Half life in rat liver microsomes by LC/MS/MS analysis; assay type: ADME, Microsome
[19] = Inhibition of PKC
[20] = Oral bioavailability in mouse up to 100 mg/kg; assay type: ADME, organism-based; conditions: in vivo
[21] = tested on: Mus musculus; assay: Toxicity in athymic mouse xenografted with human NCI-H460 cells assessed as body weight loss at 75 mg/kg, po administered QD on day 1 after implantation for 5 days measured on day 13; assay type: organism-based; set-up: dose 75 mg/kg, route oral; conditions: in vivo, 120 h
[22] = tested on: U2OS; assay: Inhibition of Aurora kinase in asynchronous human U2OS cells assessed as reduction of histone H3 serine-10 phosphorylation at 150 nM after 7 hrs immunofluorescence microscopy; assay type: cell-based
[23] = tested on: HuP-T4; assay: Cytotoxicity against human HUPT4 cells after 96 hrs by MTT assay; assay type: functional, cell-based; conditions: HuP-T4, 96 h
[24] = tested on: Mus musculus; assay: Toxicity in athymic mouse xenografted with human NCI-H460 cells assessed as body weight loss at 100 mg/kg, po administered QD on day 1 after implantation for 5 days measured on day 8; assay type: organism-based; set-up: dose 100 mg/kg, route oral; conditions: in vivo, 120 h
[25] = molecular target: Cyclin-dependent kinase 7/ cyclin H (Homo sapiens, UniProt P50613); assay: Inhibition of CDK7/Cyclin H; assay type: protein-complex assay
Chain of Cyclin-dependent kinase 7/ cyclin H (P51946 whole entry): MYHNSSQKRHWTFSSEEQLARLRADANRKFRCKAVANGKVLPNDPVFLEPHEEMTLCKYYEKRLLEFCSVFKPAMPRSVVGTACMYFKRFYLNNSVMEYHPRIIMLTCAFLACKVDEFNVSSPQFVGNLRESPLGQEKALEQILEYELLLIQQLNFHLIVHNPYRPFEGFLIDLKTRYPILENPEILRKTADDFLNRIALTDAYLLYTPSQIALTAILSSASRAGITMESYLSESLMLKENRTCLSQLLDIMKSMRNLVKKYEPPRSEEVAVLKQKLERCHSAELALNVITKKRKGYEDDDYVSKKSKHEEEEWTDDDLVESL
Chain of Cyclin-dependent kinase 7/ cyclin H (P50613 whole entry): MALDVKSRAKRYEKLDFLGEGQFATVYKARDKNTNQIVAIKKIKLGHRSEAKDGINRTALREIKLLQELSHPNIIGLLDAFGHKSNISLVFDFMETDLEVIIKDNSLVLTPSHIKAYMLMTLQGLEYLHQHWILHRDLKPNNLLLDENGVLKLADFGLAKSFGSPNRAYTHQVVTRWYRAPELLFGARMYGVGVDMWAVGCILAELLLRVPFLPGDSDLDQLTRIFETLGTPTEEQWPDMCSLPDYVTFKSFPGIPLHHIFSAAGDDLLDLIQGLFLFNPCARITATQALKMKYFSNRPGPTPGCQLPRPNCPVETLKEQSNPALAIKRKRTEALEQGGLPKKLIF

[26] = Apparent permeability across human Caco-2 cell membrane; assay type: ADME, cell-based
[27] = Antitumor activity against mouse P388D1 cells xenografted in BALB/c mouse assessed as increase in life span at 67 mg/kg, po administered BID on days 1-3 and 7-9 after tumor implantation relative to control
[28] = tested on: MIA PaCa-2; assay: Cytotoxicity against human MIAPaCa2 cells after 96 hrs by MTT assay; assay type: functional, cell-based; conditions: MIA PaCa-2, 96 h
[29] = tested on: HeLa; assay: Cytotoxicity against human HeLa cells after 96 hrs by MTT assay; assay type: functional, cell-based
[30] = tested on: NCI-H460; assay: Cytotoxicity against human NCI-H460 cells after 96 hrs by MTT assay; assay type: functional, cell-based; conditions: NCI-H460, 96 h
[31] = molecular target: Cytochrome P450 2C9 (Homo sapiens, UniProt P11712); assay: Inhibition of human recombinant CYP2C9 at 5 uM; assay type: ADME; conditions: recombinant enzyme
Chain of Cytochrome P450 2C9 (P11712 whole entry): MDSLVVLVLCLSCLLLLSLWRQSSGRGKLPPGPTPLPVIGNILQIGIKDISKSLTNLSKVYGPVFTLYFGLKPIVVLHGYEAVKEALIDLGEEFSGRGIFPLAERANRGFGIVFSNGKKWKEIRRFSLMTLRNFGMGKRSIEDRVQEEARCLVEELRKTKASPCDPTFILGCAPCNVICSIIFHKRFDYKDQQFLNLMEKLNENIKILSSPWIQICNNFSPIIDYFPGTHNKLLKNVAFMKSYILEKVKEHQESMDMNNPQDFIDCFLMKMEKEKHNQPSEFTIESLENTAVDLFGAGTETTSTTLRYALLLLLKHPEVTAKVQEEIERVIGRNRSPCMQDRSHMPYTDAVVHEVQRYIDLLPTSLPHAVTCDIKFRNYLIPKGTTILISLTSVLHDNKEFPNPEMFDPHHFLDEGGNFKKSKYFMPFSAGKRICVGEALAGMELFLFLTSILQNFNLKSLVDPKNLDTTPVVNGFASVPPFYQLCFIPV

[32] = tested on: COLO 205; assay: Cytotoxicity against human COLO205 cells after 96 hrs by MTT assay; assay type: functional, cell-based; conditions: COLO 205, 96 h
[33] = Apparent volume of distribution with respect to the bioavailability in Wistar rat at 10 mg/kg, po after 24 hrs by LC/MS/MS analysis; assay type: ADME, organism-based; conditions: in vivo, read-out: Vc/F
[34] = tested on: NCI-H460; assay: Antitumor activity against human NCI-H460 cells xenografted in athymic mouse assessed as delay in tumor growth at 75 mg/kg, po administered QD on day 1 after implantation for 5 days; assay type: functional
[35] = tested on: A2780; assay: Cytotoxicity against human A2780 cells after 96 hrs by MTT assay; assay type: functional, cell-based; conditions: A2780, 96 h
[36] = AUC (0 to 24 hrs) in Wistar rat at 10 mg/kg, po after 24 hrs by LC/MS/MS analysis; assay type: ADME, organism-based; set-up: time < 24 hr, dose 10 mg/kg, route oral; conditions: plasma
[37] = tested on: SW-620; assay: Induction of apoptosis in human SW620 cells assessed as late apoptotic cells at 1 uM after 48 hrs by TUNEL assay; assay type: functional
[38] = Inhibition of CAMK2
[39] = Dissociation constant, pKa by pH-metric titration method; assay type: physicochemical
[40] = tested on: MCF7; assay: Induction of p53 protein expression in human MCF7 cells at 0.07 to 10 uM after 7 hrs by fluorescent microscopy; assay type: functional, cell-based
[41] = Oral bioavailability in Wistar rat at 10 mg/kg after 24 hrs by LC/MS/MS analysis; assay type: ADME, organism-based; conditions: in vivo
[42] = tested on: SAOS-2; assay: Cytotoxicity against human Saos2 cells after 96 hrs by MTT assay; assay type: functional, cell-based; conditions: SAOS-2, 96 h
[43] = Clearance in Wistar rat at 10 mg/kg, po after 24 hrs by LC/MS/MS analysis; assay type: ADME, organism-based; set-up: dose 10 mg/kg, route oral; conditions: in vivo
[44] = molecular target: Cytochrome P450 3A (Homo sapiens, UniProt P08684+P20815+Q9HB55+P24462); assay: Inhibition of CYP3A in human hepatocyte at 5 uM; assay type: ADME, cell-based; conditions: hepatocytes
[45] = tested on: SW-620; assay: Effect on mitotic index in human SW620 cells assessed as appearance of polyploid cells at 1 uM after 48 hrs by propidium iodide staining-based FACS analysis; assay type: functional, cell-based
[46] = tested on: HT-29; assay: Cytotoxicity against human HT-29 cells after 96 hrs by MTT assay; assay type: functional, cell-based; conditions: HT-29, 96 h
[47] = tested on: NCI-H460; assay: Antitumor activity against human NCI-H460 cells xenografted in athymic mouse assessed as reduction in mean tumor volume at 100 mg/kg, po administered QD on day 1 after implantation for 5 days measured on day 9 relative to control; assay type: functional; set-up: scale not given: the % may be the effect or the level left
[48] = tested on: A549; assay: Cell cycle arrest in asynchronous human A549 cells assessed as accumulation of cyclin B1-negative tetraploid cells at G1 phase at 0.5 to 2 uM after 7 hrs by FACS analysis; assay type: functional, cell-based

## Cc1nc(N)sc1-c1ccnc(Nc2ccc(N3CCOCC3)cc2)n1 [CYC-116]
[1]
  IC50: 480 nM
[2]
  inhibition (INH): Active
[3]
  Activity: Active
[4]
  Cmax: 3.9 µM
[5]
  Ki: > 10000 nM
[6]
  IC50: 340 nM
[7]
  half-life at 5 µM: 72 min
[8]
  IC50: 471 nM
[9]
  inhibition (INH): Active
[10]
  inhibition: Active
[11]
  inhibition (INH): Active
[12]
  Ki: > 10000 nM
[13]
  Activity: 9.3%
[14]
  IC50: 1380 nM
[15]
  IC50: 90 nM
[16]
  inhibition: Active
[17]
  solubility kinetic: 10.5 µM (≈ 3.87 µg/mL)
[18]
  half-life: 32.8 min
[19]
  Ki: > 10000 nM
[20]
  bioavailability: ≤ 61%
[21]
  Activity: Non-toxic
[22]
  Activity: inactive
[23]
  IC50: 775 nM
[24]
  Activity: Toxic
[25]
  Ki: > 10000 nM
[26]
  Papp: 47 ×10⁻⁶ cm/s
[27]
  Activity: 183%
[28]
  IC50: 278 nM
[29]
  IC50: 590 nM
[30]
  IC50: 681 nM
[31]
  inhibition (INH): Active
[32]
  IC50: 241 nM
[33]
  Vd/F: 8.5 L/kg
[34]
  Activity: 2.3 days
[35]
  IC50: 170 nM
[36]
  AUC(0-t) at 24 h: 13.6 µM·h
[37]
  Activity: 34.7%
[38]
  Ki: > 10000 nM
[39]
  pKa: 4.4
[40]
  Activity: inactive
[41]
  bioavailability: 38%
[42]
  IC50: 110 nM
[43]
  CL/F: 33.3 mL/min/kg
[44]
  inhibition (INH): Active
[45]
  Activity: Active
[46]
  IC50: 725 nM
[47]
  Activity: 19%
[48]
  Activity: Active
